Reference: patent US20120189673A1, “POLYPEPTIDES AND USES THEREOF” (priority 2009, published 2012)
Like-named read-outs stand apart in the source and are kept apart here.

Legend:
[1] = system: extrinsic pathway of coagulation in normal human plasma; experiment: Clotting assay: prothrombin time (PT); type: biochemical
Method: (§1) Clotting assays. All clotting times were measured using an Amelung coagulometer. Activated partial thromboplastin time (aPTT) was measured by incubating the peptides diluted in sterile water at the indicated concentrations, with 100 μL citrated human plasma for 1 minute followed by the addition of 100 μL aPTT reagent (aPTT Automate, Diagnostica Stago) for 60 seconds at 37° C. Clotting was initiated by the addition of 100 μL of a 25-mM CaCl2 solution. In the prothombrin time assay (PT), clotting was initiated by the addition of 100 μL Thrombomax with calcium (PT reagent; Sigma-Aldrich). For measuring the thrombin clotting time (TCT), clotting was initiated by the addition of 100 μL Accuclot thrombin time reagent (TCT reagent; Sigma-Aldrich).

[2] = system: P. aeruginosa; experiment: Viable count analysis, P. aeruginosa; type: cell-based, Pseudomonas aeruginosa; conditions: for killing in human plasma compared with physiological buffer: 20% human citrate plasma
Method: Viable count analysis—E. coli strains were grown to mid-logarithmic phase in Todd-Hewitt (TH). P. aeruginosa strains were grown in TH overnight. Bacteria were washed and diluted in 10 mM Tris, pH 7.4 containing 5 mM glucose. 2×10^6 cfu/ml bacteria were incubated in 50 μl, at 37° C. for 2 h with the C-terminal TFPI-derived peptides GGL27, TKR22, or LIK17 at the indicated concentrations. Additional experiments were performed in 10 mM Tris, pH 7.4, containing 0.15 M NaCl, either alone or with 20% normal or heat inactivated citrate-plasma. Serial dilutions of the incubation mixture were plated on TH agar, followed by incubation at 37° C. overnight and cfu determination.

[3] = system: thrombin induced fibrin network formation in normal human plasma; experiment: Clotting assay: thrombin clotting time (TCT); type: biochemical
Method: as §1

[4] = system: E. coli; experiment: Bacterial membrane permeabilization, impermeant probe FITC (fluorescence microscopy); type: cell-based, Escherichia coli; conditions: 30 μM peptide
Method: Fluorescence microscopy. The impermeant probe FITC (Sigma-Aldrich, St. Louis, USA) was used for monitoring of bacterial membrane permeabilization. S. aureus ATCC 29213 bacteria were grown to mid-logarithmic phase in TSB medium. Bacteria were washed and resuspended in buffer (10 mM Tris, pH 7.4, 0.15M NaCl, 5 mM glucose) to yield a suspension of 1×10^7 CFU/ml. 100 μl of the bacterial suspension was incubated with 30 μM of the respective peptides at 30° C. for 30 min. Microorganisms were then immobilized on poly (L-lysine)-coated glass slides by incubation for 45 min at 30° C., followed by addition onto the slides of 200 μl of FITC (6 μg/ml) in buffer and a final incubation for 30 min at 30° C. […] Bacteria were visualized using a Nikon Eclipse TE300 (Nikon, Melville, USA) inverted fluorescence microscope equipped with a Hamamatsu C4742-95 cooled CCD camera (Hamamatsu, Bridgewater, USA) and a Plan Apochromat ×100 objective (Olympus, Orangeburg, USA). […]
Fluorescence microscopy—Fluorescein isothiocyanate (FITC; Sigma-Aldrich, St. Louis, USA) was used for monitoring of bacterial membrane permeabilization. […] Bacteria were visualized using a Nikon Eclipse TE300 (Nikon, Melville, USA) inverted fluorescence microscope equipped with a Hamamatsu C4742-95 cooled CCD camera (Hamamatsu, Bridgewater, USA) and a Plan Apochromat ×100 objective (Olympus, Orangeburg, USA). […]

Sequence	prothrombin time (PT) [1]	potentiating effect of native plasma compared with heat-inactivated plasma [2]	killing in human plasma compared with physiological buffer [2]	thrombin clotting time (TCT) [3]	permeabilization of bacterial membranes [4]	prothrombin time (PT) ([1]; listed as GGL-27)	thrombin clotting time (TCT) ([3]; listed as GGL-27)
LIKTKRKRKKQRVKIAY [LIK17]	affected prothrombin time	less significant	not enhanced	not significantly affected	permeabilized bacterial membranes		
GGLIKTKRKRKKQRVKIAYEEIFVKNM [GGL27, C-terminal peptide of TFPI, plasmin-generated]	affected prothrombin time	less significant	not enhanced	not significantly affected	permeabilized bacterial membranes	impairs coagulation in a dose dependent manner	impairs coagulation in a dose dependent manner
